Reference: the supplement of paper PMC10307832

Key:
Assay in all cases: relative viability (nuclei count vs DMSO), 5 days (fraction); higher = more cells survive
Bortezomib + Lapatinib = compound: CC(C)C[C@H](NC(=O)[C@H](Cc1ccccc1)NC(=O)c1cnccn1)B(O)O [Bortezomib] + CS(=O)(=O)CCNCc1ccc(-c2ccc3ncnc(Nc4ccc(OCc5cccc(F)c5)c(Cl)c4)c3c2)o1 [Lapatinib] (partner 2 µM)
Procedure, shortened: (§1)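 A single step with final 0.05% Triton X-100, 1% formaldehyde and 1 ug/ml Hoechst fixed the cells and stained nuclei 5 days after treatment. Lung cancer cell lines in 1536-well plates had been treated by pin tool the day after seeding with one drug alone or a fixed anchor-drug dose plus five library-drug doses (not always all listed) in √10 steps, and nuclei were counted on 4× images. Relative viability is the ratio of nuclei in treated wells to nuclei in vehicle wells, taken as the median of duplicate plates.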

[1] = compound: CC1=CC(=NN1)NC2=CC(=NC(=N2)/C=C/C3=CC=CC=C3)N4CCN(CC4)C + COc1cc2c(Oc3ccc(NC(=O)C4(C(=O)Nc5ccc(F)cc5)CC4)cc3F)ccnc2cc1OCCCN1CCOCC1 [Foretinib] (partner 0.25 µM)
Procedure, shortened: as §1

[2] = compound: CC1=CC(=NN1)NC2=CC(=NC(=N2)/C=C/C3=CC=CC=C3)N4CCN(CC4)C + N=C(N)NC(=N)NCCc1ccccc1 [Phenformin] (partner 250 µM)
Procedure, shortened: as §1

Obatoclax + Bortezomib = compound: COC1=CC(c2cc3ccccc3[nH]2)=N/C1=C\c1[nH]c(C)cc1C [Obatoclax] + CC(C)C[C@H](NC(=O)[C@H](Cc1ccccc1)NC(=O)c1cnccn1)B(O)O [Bortezomib] (partner 0.002 µM)
Procedure, shortened: as §1

NCI-H838 was tested, and the relative viability (Bortezomib + Lapatinib; first compound 0.0002 µM) was 0.897, the relative viability (Bortezomib + Lapatinib; first compound 0.000632 µM) was 0.982 and the relative viability (Bortezomib + Lapatinib; first compound 0.002 µM) was 0.936. It also gave a relative viability (Bortezomib + Lapatinib; first compound 0.006325 µM) of 0.121, a relative viability (Bortezomib + Lapatinib; first compound 0.02 µM) of 0.114 and a relative viability ([1]; first compound 0.08 µM) of 0.99. The relative viability ([1]; first compound 0.253 µM) was 1.14, the relative viability ([1]; first compound 0.8 µM) was 0.965 and the relative viability ([1]; first compound 2.53 µM) was 0.798. The relative viability ([1]; first compound 8 µM) was 0.131, the relative viability ([2]; first compound 0.08 µM) was 0.567 and the relative viability ([2]; first compound 0.253 µM) was 0.583. The relative viability ([2]; first compound 0.8 µM) was 0.462, the relative viability ([2]; first compound 2.53 µM) was 0.123 and the relative viability ([2]; first compound 8 µM) was 0.107. It also gave a relative viability (Obatoclax + Bortezomib; first compound 0.01 µM) of 1.01, a relative viability (Obatoclax + Bortezomib; first compound 0.03162 µM) of 0.748 and a relative viability (Obatoclax + Bortezomib; first compound 0.1 µM) of 0.495. The relative viability (Obatoclax + Bortezomib; first compound 0.3162 µM) was 0.754 and the relative viability (Obatoclax + Bortezomib; first compound 1 µM) was 0.404.
For NCI-H520, the relative viability (Bortezomib + Lapatinib; first compound 0.0002 µM) was 0.91, the relative viability (Bortezomib + Lapatinib; first compound 0.000632 µM) was 0.857 and the relative viability (Bortezomib + Lapatinib; first compound 0.002 µM) was 0.271. It also gave a relative viability (Bortezomib + Lapatinib; first compound 0.006325 µM) of 0.108, a relative viability (Bortezomib + Lapatinib; first compound 0.02 µM) of 0.128 and a relative viability ([1]; first compound 0.08 µM) of 0.669. The relative viability ([1]; first compound 0.253 µM) was 0.843, the relative viability ([1]; first compound 0.8 µM) was 0.788 and the relative viability ([1]; first compound 2.53 µM) was 0.534. It also gave a relative viability ([1]; first compound 8 µM) of 0.185, a relative viability ([2]; first compound 0.08 µM) of 0.655 and a relative viability ([2]; first compound 0.253 µM) of 0.62. For the same cell line, the relative viability ([2]; first compound 0.8 µM) was 0.603, the relative viability ([2]; first compound 2.53 µM) was 0.23 and the relative viability ([2]; first compound 8 µM) was 0.172. It also gave a relative viability (Obatoclax + Bortezomib; first compound 0.01 µM) of 0.664, a relative viability (Obatoclax + Bortezomib; first compound 0.03162 µM) of 0.525 and a relative viability (Obatoclax + Bortezomib; first compound 0.1 µM) of 0.562. The relative viability (Obatoclax + Bortezomib; first compound 0.3162 µM) was 0.299 and the relative viability (Obatoclax + Bortezomib; first compound 1 µM) was 0.264.
NCI-H2347 was tested, and the relative viability (Bortezomib + Lapatinib; first compound 0.0002 µM) was 0.922, the relative viability (Bortezomib + Lapatinib; first compound 0.000632 µM) was 1.05 and the relative viability (Bortezomib + Lapatinib; first compound 0.002 µM) was 0.942. For the same cell line, the relative viability (Bortezomib + Lapatinib; first compound 0.006325 µM) was 0.849, the relative viability (Bortezomib + Lapatinib; first compound 0.02 µM) was 0.37 and the relative viability ([1]; first compound 0.08 µM) was 0.554. It also gave a relative viability ([1]; first compound 0.253 µM) of 1.44, a relative viability ([1]; first compound 0.8 µM) of 1.21 and a relative viability ([1]; first compound 2.53 µM) of 0.857. The relative viability ([1]; first compound 8 µM) was 0.325, the relative viability ([2]; first compound 0.08 µM) was 0.402 and the relative viability ([2]; first compound 0.253 µM) was 0.347. It also gave a relative viability ([2]; first compound 0.8 µM) of 0.435, a relative viability ([2]; first compound 2.53 µM) of 0.38 and a relative viability ([2]; first compound 8 µM) of 0.208. It also gave a relative viability (Obatoclax + Bortezomib; first compound 0.01 µM) of 0.935, a relative viability (Obatoclax + Bortezomib; first compound 0.03162 µM) of 0.859 and a relative viability (Obatoclax + Bortezomib; first compound 0.1 µM) of 1.07. It also gave a relative viability (Obatoclax + Bortezomib; first compound 1 µM) of 0.95.
NCI-H2405 gave a relative viability (Bortezomib + Lapatinib; first compound 0.0002 µM) of 0.817, a relative viability (Bortezomib + Lapatinib; first compound 0.002 µM) of 1.01 and a relative viability (Bortezomib + Lapatinib; first compound 0.006325 µM) of 0.112. The relative viability (Bortezomib + Lapatinib; first compound 0.02 µM) was 0.121, the relative viability ([1]; first compound 0.08 µM) was 1.05 and the relative viability ([1]; first compound 0.253 µM) was 1.07. It also gave a relative viability ([1]; first compound 0.8 µM) of 1.07, a relative viability ([1]; first compound 2.53 µM) of 0.878 and a relative viability ([1]; first compound 8 µM) of 0.229. The relative viability ([2]; first compound 0.08 µM) was 0.377, the relative viability ([2]; first compound 0.253 µM) was 0.307 and the relative viability ([2]; first compound 0.8 µM) was 0.422. For the same cell line, the relative viability ([2]; first compound 2.53 µM) was 0.244, the relative viability ([2]; first compound 8 µM) was 0.1 and the relative viability (Obatoclax + Bortezomib; first compound 0.01 µM) was 1.01. For the same cell line, the relative viability (Obatoclax + Bortezomib; first compound 0.03162 µM) was 0.852, the relative viability (Obatoclax + Bortezomib; first compound 0.3162 µM) was 0.982 and the relative viability (Obatoclax + Bortezomib; first compound 1 µM) was 1.07.
HCC-15 gave a relative viability (Bortezomib + Lapatinib; first compound 0.0002 µM) of 0.824, a relative viability (Bortezomib + Lapatinib; first compound 0.000632 µM) of 0.943 and a relative viability (Bortezomib + Lapatinib; first compound 0.002 µM) of 0.817. For the same cell line, the relative viability (Bortezomib + Lapatinib; first compound 0.006325 µM) was 0.38, the relative viability (Bortezomib + Lapatinib; first compound 0.02 µM) was 0.0867 and the relative viability ([1]; first compound 0.08 µM) was 1.06. It also gave a relative viability ([1]; first compound 0.253 µM) of 1.11, a relative viability ([1]; first compound 0.8 µM) of 0.839 and a relative viability ([1]; first compound 2.53 µM) of 0.196. It also gave a relative viability ([1]; first compound 8 µM) of 0.0908, a relative viability ([2]; first compound 0.08 µM) of 0.472 and a relative viability ([2]; first compound 0.253 µM) of 0.452. The relative viability ([2]; first compound 0.8 µM) was 0.434, the relative viability ([2]; first compound 2.53 µM) was 0.107 and the relative viability ([2]; first compound 8 µM) was 0.0823. The relative viability (Obatoclax + Bortezomib; first compound 0.01 µM) was 0.973, the relative viability (Obatoclax + Bortezomib; first compound 0.03162 µM) was 1.02 and the relative viability (Obatoclax + Bortezomib; first compound 0.1 µM) was 0.926. It also gave a relative viability (Obatoclax + Bortezomib; first compound 0.3162 µM) of 0.957 and a relative viability (Obatoclax + Bortezomib; first compound 1 µM) of 0.739.
